Data taken from US10662222B2, “Drug delivery enhancement agents” (The University of Bath, priority 2014, dated 2020).
Read-outs that look alike come from different tables or passages of the source.

Legend:
Caco-2 cell monolayers [1] = assay: Trans-epithelial electrical resistance (TEER) of Caco-2 monolayers after apical peptide application; assay type: cell-based, human; conditions: for Efficacy at 5 mM (TEER reduction): apical application to Caco-2 cell monolayers
Procedure: An immortalized human intestinal epithelial cell line (Caco-2) were maintained in DMEM/F12 medium (Gibco, Paisley, UK) supplemented with 10% FBS, 2 mM L-glutamine (Gibco) 100 U/ml penicillin and 100 μg/ml streptomycin (Gibco). Caco-2 cells were seeded at a density of 7×10^4/well on Transwell™ (Corning, N.Y.) polyester membrane filters (12 mm diameter, 0.4 μm pore size). Re-feeding with DMEM (Life Technologies, Paisley, UK) was carried out every second day. Caco-2 monolayers with trans-epithelial electrical resistance (TEER)>350 Ω·cm2 were considered confluent and used in transport assays; fixed paddle electrodes were used to measure TEER (World Precision Instruments, UK).
(§1) Apical to basal flux of 50 mg/ml 4 kDa dextran or 50 mg/ml 70 kDa dextran (Sigma) was performed to assess the impact of PIP peptides on paracellular permeability. Apical compartment volume was 200 μl; at set times the 600 μl basal compartment volume was collected and replaced with fresh HBSS. Apical and basal compartment fluorescence was determined using a Floustar Omega microplate reader (BMG Labtech, Ortenburg, Germany). TEER measurements were made for each well immediately after HBSS replacement. After 3 hr, the apical compartment dextran and peptide solution was removed and replaced with PBS and TEER values were recorded for a further 30 min to assess monolayer recovery.
(§2) TEER values were calculated by subtracting blank filter reading and normalized as a percentage of the initial TEER value for that monolayer. Fluorescent dextran flux used to calculate paracellular permeability was performed as previously described. Blood glucose levels were expressed as a percentage of the baseline glucose levels for each animal. Data were compared to control values using a two-tailed, un-paired Student's T-test.
Peptides were applied apically at a concentration of 5 mM to confluent monolayers of Caco-2 cells grown on semi-permeable inserts (Rubus et al. (1996) J. Pharma. Sci 85:165-169) to assess their ability to affect TJ function (Peterson & Mooseker (1992) J. Cell. Sci. 102(3):581-600). RRVEVKYDRR (peptide #6; peptide 640, SEQ ID NO: 3) reduced the trans-epithelial electrical resistance (TEER) of Caco-2 monolayers with a drop of 50% within 25 min of addition (FIG. 4), and none of the peptides were toxic at this concentration according to MTT assay (Mosman (1983) J. Immunol. Methods 65:55-63). Critically, following gentle washing, RRVEVKYDRR (SEQ ID NO: 3)-treated Caco-2 monolayers TEER values recovered to 80% of their original values within 24 h. A lead candidate, peptide NH2-rrdykvevrr-NH2, (SEQ ID NO: 20) was identified based on the RRVEVKYDRR (SEQ ID NO: 3) sequence but using the retro-inverso configuration with D-configuration amino acids.

Caco-2 cells [2] = system: Caco-2 cells
Procedure: (§3) MTT assay: Cell viability was assessed using the 3-(4,5-dimethylthiazol-2-yl)-2,5-diphenyl tetrazolium bromide (MTT; Invitrogen, Paisley, UK) assay. Following exposure of cells to CPP complexes for 72 hours, 0.5 mg/ml MTT was added to the culture medium and incubated with the cells for a further 3 hours. Media was then removed and replaced with DMSO to lyse the cells. Absorbance was then recorded at 550 nm.

Caco-2 cell monolayers [3] = assay: Trans-epithelial electrical resistance (TEER) of Caco-2 monolayers after apical peptide application; assay type: cell-based, human; conditions: FIG. 6; for TEER after peptide removal: fresh media to apical compartment after 180 min exposure
Caco-2 monolayers = assay: Apical to basal flux of fluorescent dextran (4 kDa, 70 kDa) across Caco-2 monolayers; assay type: cell-based, human; conditions: for transport of paracellular marker 4 kDa fluorescent dextran (4FD): relative to control peptide, FIG. 5
Procedure: as §1, §2

[4] = system: myosin light chain (MLC) phosphorylated at Ser19; assay: PhosphoMLC analysis (Western blot) of intestinal tissue after ILI injection; assay type: in vivo, rat; conditions: 20 mM peptide
Procedure: After rinsing with ice cold PBS, Caco-2 monolayers or epithelial cells from isolated intestinal tissue were lysed in 3 μL of a protease inhibitor cocktail and 200 μL RIPA buffer and left on ice for 10 min. Isolated intestinal tissue was similarly placed in ice cold PBS for 15 min prior to maceration in a protease inhibitor cocktail and RIPA buffer, being left on ice for 10 min. All cell and tissues lysates were centrifuged at 8000 rpm for 15 min to collect the supernatant, which was stored at −80° C. until use. For Western blots analysis, lysates were separated by SDS-PAGE (12%) run at 220V for 40 min and electro-transferred onto a PDVF membrane at 30V for 70 min using an XCell™ Blot module (Invitrogen). Membranes were blocked using 5% bovine serum albumin in TBS-T (2 M Tris, HCl, pH 7.5, 4 M NaCl and 0.1% Tween 20) for 1 hr. Membranes were washed with water, incubated with primary antibody (anti-myosin light chain (phospho S20) antibody or anti-myosin light chain 2) antibody overnight at 5° C., washed thrice with TBS-T, and then incubated with secondary horseradish […] (HRP)-coupled antibody for 1 hr at room temperature. After washing thrice in TBS-T, HRP activity was detected by ECL (Santa Cruz).
After rinsing with ice cold PBS to remove PIP peptide or control treatment agents, isolated intestinal tissue was placed in ice cold PBS for 15 min prior to addition of 25 μl protease inhibitor cocktail (Fisher), 25 μl phosphatase inhibitor cocktail (Fisher) and 500 μl RIPA buffer (Sigma Aldrich). After 10 min on ice lysates were centrifuged at 8000 rpm for 15 min to collect the supernatant, which was stored at −80° C. until use. For Western blots analysis, lysates were separated by SDS-PAGE (12%) run at 220V for 40 min and electro-transferred onto a PDVF membrane at 30V for 70 min using an XCell™ Blot module (Invitrogen). Membranes were blocked using 5% bovine serum albumin in TBS-T (2 M Tris HCl, pH 7.5, 4 M NaCl and 0.1% Tween 20) for 1 h. Membranes were washed with water, incubated with primary antibody (anti-myosin light chain (phospho S19) antibody (Cell Signalling Technologies) or anti-myosin light chain 2 antibody (Abcam) overnight at 5° C., washed thrice with TBS-T, and then incubated with secondary horseradish […] (HRP)-coupled antibody for 1 h at room temperature. After washing thrice in TBS-T, HRP activity was detected by ECL (Santa Cruz).

[5] = Blood glucose after SC or intraluminal intestinal (ILI) injection of insulin with PIP peptides; assay type: in vivo, rat
Procedure: Male Wistar rats, bred in house, were 225-275 g (approximately 6-8 weeks old) when placed on study. Rats were housed in groups of 3-5 per cage in a 12/12 hr light/dark cycle. All experiments were conducted during the light phase and carried out using a non-recovery protocol that used continuous isoflurane anesthesia. A 4-5 cm midline abdominal incision was made to expose mid-jejunum to early ileum regions of the small intestine and to provide access to the portal vein for the insertion of a cannula. Solutions of insulin (human recombinant; Sigma) and PIP peptides were prepared in 0.9% saline containing 10 mM citric acid to reduce local proteolysis and mixed 1:1 before injection using a 29-gauge hypodermic needle in a volume of 200 μL/kg (or ˜50 μL, per 250 g rat). The injection site was marked with a permanent marker. The incision was closed with surgical glue. Blood draws were taken from the portal vein as well as systemic circulation over the next two hours to monitor glucose, serum insulin and endotoxin. Control treatment groups included SC injection of insulin […] as well as intestinal injection of PIP peptide without insulin or insulin alone in the phosphate buffered saline (PBS) formulation used for all groups. At the end of a study, a 3-5 mm region about the marked intestine segment was isolated. This tissue was lysed for biochemical assessment of MLC phosphorylation state or fixed, sectioned, and stained with hematoxylin/eosin prior to analysis read by a licensed veterinary pathologist. Subcutaneous (SC) insulin injections (20 μl/kg) were performed in the mid-scapular region and blood glucose was measured in the same manner. All experiments were performed in accordance with the U.K. Animals (Scientific Procedures) Act of 1986, the European Communities Council Directive of 1986 (86/609/EEC), and the University of Bath's ethical review procedures.
as §2

Caco-2 cells [6] = assay: Cell viability / cytotoxicity, MTT assay
Procedure: as §3

NH2-RRVpTVKYKRR-NH2 (RRVTVKYKRR; HELM PEPTIDE1{R.R.V.[C[C@@H](OP(=O)(O)O)[C@H](N[*:1])C(=O)[*:2]].V.K.Y.K.R.R.[am]}$$$$V2.0; SMILES CC(C)[C@H](NC(=O)[C@H](CCCNC(=N)N)NC(=O)[C@@H](N)CCCNC(=N)N)C(=O)N[C@H](C(=O)N[C@H](C(=O)N[C@@H](CCCCN)C(=O)N[C@@H](Cc1ccc(O)cc1)C(=O)N[C@@H](CCCCN)C(=O)N[C@@H](CCCNC(=N)N)C(=O)N[C@@H](CCCNC(=N)N)C(N)=O)C(C)C)[C@@H](C)OP(=O)(O)O) [compound 4]
Efficacy at 5 mM (TEER reduction) (Caco-2 cell monolayers [1]; 5 mM): No

NH2-RRK TVKYDRR-NH2 (H-RRKTVKYDRR-NH2) [compound 5]
Efficacy at 5 mM (TEER reduction) (Caco-2 cell monolayers [1]; 5 mM): No

NH2-RRV TVKYKRR-NH2 (H-RRVTVKYKRR-NH2) [compound 3]
Efficacy at 5 mM (TEER reduction) (Caco-2 cell monolayers [1]; 5 mM): No

NH2-RRVpTVKYDRR-NH2 (RRVTVKYDRR; HELM PEPTIDE1{R.R.V.[C[C@@H](OP(=O)(O)O)[C@H](N[*:1])C(=O)[*:2]].V.K.Y.D.R.R.[am]}$$$$V2.0; SMILES CC(C)[C@H](NC(=O)[C@H](CCCNC(=N)N)NC(=O)[C@@H](N)CCCNC(=N)N)C(=O)N[C@H](C(=O)N[C@H](C(=O)N[C@@H](CCCCN)C(=O)N[C@@H](Cc1ccc(O)cc1)C(=O)N[C@@H](CC(=O)O)C(=O)N[C@@H](CCCNC(=N)N)C(=O)N[C@@H](CCCNC(=N)N)C(N)=O)C(C)C)[C@@H](C)OP(=O)(O)O) [peptide 2]
Efficacy at 5 mM (TEER reduction) (Caco-2 cell monolayers [1]; 5 mM): No

NH2-RRV EVKYDRR-NH2 [peptide 640]
cell viability (mitochondrial membrane polarity marker MTS) (Caco-2 cells [2]): did not affect cell viability
TEER after peptide removal (Caco-2 cell monolayers [3]): rapid reversal of TEER depression
permeability of 4 kDa dextran (Caco-2 monolayers; 5 mM): failed to affect
transport of paracellular marker 4 kDa fluorescent dextran (4FD) (Caco-2 monolayers; 5 mM): increased transport of a paracellular marker relative to the control
increase of rate of 4 kDa dextran permeation (Caco-2 monolayers; 10 mM apical): ~3 fold
flux of 70 kDa dextran (Caco-2 monolayers; concentration not given): failed to affect
drop of TEER (Caco-2 cell monolayers [1]; 5 mM apical, within 25 min of addition): 50%
Efficacy at 5 mM (TEER reduction) (Caco-2 cell monolayers [1]; 5 mM): Yes
TEER decrease to % of its initial value (Caco-2 cell monolayers [1]; 5 mM, FIG. 5): ~50%
loss in TEER (Caco-2 cell monolayers [1]; 5 mM, after 180 min of exposure): ~50%
TEER recovery, % of original values (Caco-2 cell monolayers [1]; after gentle washing, within 24 h): 80%
MLC phosphorylation ratio (MLC to pMLC) ([4]; 15 min): significantly increased
MLC phosphorylation ratio (MLC to pMLC) ([4]; 45 min): remained elevated
MLC phosphorylation ratio (MLC to pMLC) ([4]; 90 min): returning to initial levels
blood glucose change profile ([5]; ILI of 30 IU/kg insulin plus 10 mM peptide): much delayed decrease

insulin
decrease in blood glucose ([5]; SC injection of 3 IU/kg insulin): ~50%
time at which blood glucose began to recover ([5]; SC injection of insulin): ~90 min
time of blood glucose nadir ([5]; SC injection of insulin): ~30 min
effect on blood sugar ([5]; intraluminal injection of 30 IU/kg insulin alone): no effect

RKAKYQYRRK (drug delivery enhancement peptide) [peptide 250]
cell viability (mitochondrial membrane polarity marker MTS) (Caco-2 cells [6]; concentrations that modulated TEER and paracellular permeability): did not affect cell viability
cytotoxicity using the MTT assay (Caco-2 cells [6]; data not shown): lack of cytotoxicity
TEER response (Caco-2 cell monolayers [3]; 20 mM peptide 250 versus 10 mM peptide 640): very comparable response to 10 mM peptide 640
TEER after peptide removal (Caco-2 cell monolayers [3]): rapid reversal of TEER depression
transport of paracellular marker 4 kDa fluorescent dextran (4FD) (Caco-2 monolayers; 5 mM): increased transport of a paracellular marker relative to the control
4 kDa dextran flux rates, comparison (Caco-2 monolayers; 10 mM): 10 mM peptide 640 was equal to 10 mM peptide 250
4 kDa dextran flux rate compared to control (Caco-2 monolayers; 20 mM): ~6 fold
increase of 70 kDa dextran flux (Caco-2 monolayers; 20 mM): ~3 fold
TEER change compared with peptide 640 (Caco-2 cell monolayers [1]; 5 mM, FIG. 5): slower and less pronounced drop in TEER
MLC phosphorylation ratio (MLC to pMLC) ([4]; 15 min): no significant changes
MLC phosphorylation ratio (MLC to pMLC) ([4]; 45 min): elevated
MLC phosphorylation ratio (MLC to pMLC) ([4]; 90 min): returning to basal levels
blood sugar recovery ([5]; ILI of 30 IU/kg insulin plus 10 mM peptide, by 90 min): 70-80%
drop in blood glucose ([5]; ILI of 30 IU/kg insulin plus 20 mM peptide, by 30 min, remained for the remainder of the experiment): 40%

NH2-RRV TVKYDRR-NH2 (H-RRVTVKYDRR-NH2) [peptide 1]
Efficacy at 5 mM (TEER reduction) (Caco-2 cell monolayers [1]; 5 mM): No
